Data taken from PubChem BioAssay (NCI).
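Exposure lasted 48 hours, with cells grown in 96-well plates and compounds tested at five concentrations. The concentration for 50% growth inhibition is given as GI50. TGI: total growth inhibition.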

How the values were obtained:
Assay in all cases: NCI anticancer screen, dose series, 48 h
SK-OV-3 ovarian = test system: SK-OV-3 ovarian
CCRF-CEM leukemia = test system: CCRF-CEM leukemia
U251 CNS = test system: U251 CNS
MALME-3M melanoma = test system: MALME-3M melanoma
MDA-MB-435 = test system: MDA-MB-435
OVCAR-4 ovarian = test system: OVCAR-4 ovarian
NCI-H226 lung = test system: NCI-H226 lung
OVCAR-5 ovarian = test system: OVCAR-5 ovarian
A498 renal = test system: A498 renal
HCC-2998 colon = test system: HCC-2998 colon
KM12 colon = test system: KM12 colon
SF-539 CNS = test system: SF-539 CNS
NCI-H522 lung = test system: NCI-H522 lung
IGROV1 ovarian = test system: IGROV1 ovarian
SR leukemia = test system: SR leukemia
HCT-15 colon = test system: HCT-15 colon
RPMI-8226 leukemia = test system: RPMI-8226 leukemia
NCI-H460 lung = test system: NCI-H460 lung
HOP-92 NSCLC = test system: HOP-92 NSCLC
UO-31 renal = test system: UO-31 renal
HL-60(TB) leukemia = test system: HL-60(TB) leukemia
SNB-75 CNS = test system: SNB-75 CNS
TK-10 renal = test system: TK-10 renal
BT-549 breast = test system: BT-549 breast
MCF7 breast = test system: MCF7 breast
SK-MEL-5 melanoma = test system: SK-MEL-5 melanoma
HS 578T breast = test system: HS 578T breast
HT29 colon = test system: HT29 colon
SK-MEL-28 melanoma = test system: SK-MEL-28 melanoma
RXF 393 renal = test system: RXF 393 renal
UACC-62 melanoma = test system: UACC-62 melanoma
ACHN renal = test system: ACHN renal
OVCAR-8 ovarian = test system: OVCAR-8 ovarian
K-562 leukemia = test system: K-562 leukemia
NCI-H23 lung = test system: NCI-H23 lung
EKVX NSCLC = test system: EKVX NSCLC
SF-295 CNS = test system: SF-295 CNS
NCI/ADR-RES ovarian = test system: NCI/ADR-RES ovarian
DU-145 prostate = test system: DU-145 prostate
MOLT-4 leukemia = test system: MOLT-4 leukemia
SW-620 colon = test system: SW-620 colon
SNB-19 CNS = test system: SNB-19 CNS
HCT-116 colon = test system: HCT-116 colon
UACC-257 melanoma = test system: UACC-257 melanoma

## Cc1nn(-c2ccccc2)cc1/C=N/Nc1nc(Nc2ccccc2)nc(Nc2ccc(S(N)(=O)=O)cc2)n1
SK-OV-3 ovarian
  GI50: 2.93 µM
  TGI: 6.61 µM
CCRF-CEM leukemia
  GI50: 2.09 µM
  TGI: > 100 µM
U251 CNS
  GI50: 3.65 µM
  TGI: > 100 µM
MALME-3M melanoma
  GI50: 1.6 µM
  TGI: 3.13 µM
MDA-MB-435
  GI50: 1.77 µM
  TGI: 3.46 µM
OVCAR-4 ovarian
  GI50: 2.56 µM
  TGI: 7.32 µM
NCI-H226 lung
  GI50: 1.85 µM
  TGI: 4.34 µM
OVCAR-5 ovarian
  GI50: 2.06 µM
  TGI: 5.04 µM
A498 renal
  GI50: 1.71 µM
  TGI: 3.39 µM
HCC-2998 colon
  GI50: 1.88 µM
  TGI: 3.63 µM
KM12 colon
  GI50: 2.84 µM
  TGI: 8.33 µM
SF-539 CNS
  GI50: 1.71 µM
  TGI: 3.27 µM
NCI-H522 lung
  GI50: 2.66 µM
  TGI: 8.27 µM
IGROV1 ovarian
  GI50: 2.59 µM
  TGI: 6.7 µM
SR leukemia
  GI50: 2.45 µM
  TGI: > 100 µM
HCT-15 colon
  GI50: 2.67 µM
  TGI: > 100 µM
RPMI-8226 leukemia
  GI50: 1.66 µM
  TGI: 5.41 µM
NCI-H460 lung
  GI50: 2.77 µM
  TGI: 7.38 µM
HOP-92 NSCLC
  GI50: 2.44 µM
  TGI: 5.44 µM
UO-31 renal
  GI50: 1.72 µM
  TGI: 3.54 µM
HL-60(TB) leukemia
  GI50: 2.24 µM
  TGI: 7.67 µM
SNB-75 CNS
  GI50: 2.69 µM
  TGI: 8.72 µM
TK-10 renal
  GI50: 1.48 µM
  TGI: 3.5 µM
BT-549 breast
  GI50: 1.85 µM
  TGI: 4.56 µM
MCF7 breast
  GI50: 1.55 µM
  TGI: 3.43 µM
SK-MEL-5 melanoma
  GI50: 1.48 µM
  TGI: 2.8 µM
HS 578T breast
  GI50: 2.77 µM
  TGI: 8.1 µM
HT29 colon
  GI50: 2.88 µM
  TGI: > 100 µM
SK-MEL-28 melanoma
  GI50: 1.8 µM
  TGI: 3.46 µM
RXF 393 renal
  GI50: 1.77 µM
  TGI: 3.39 µM
UACC-62 melanoma
  GI50: 1.78 µM
  TGI: 3.57 µM
ACHN renal
  GI50: 1.9 µM
  TGI: 3.57 µM
OVCAR-8 ovarian
  GI50: 2.05 µM
  TGI: > 100 µM
K-562 leukemia
  GI50: 2.63 µM
  TGI: > 100 µM
NCI-H23 lung
  GI50: 1.75 µM
  TGI: 3.62 µM
EKVX NSCLC
  GI50: 2 µM
  TGI: 5.09 µM
SF-295 CNS
  GI50: 2.23 µM
  TGI: 5.94 µM
NCI/ADR-RES ovarian
  GI50: > 100 µM
  TGI: > 100 µM
DU-145 prostate
  GI50: 3.06 µM
  TGI: 9.48 µM
MOLT-4 leukemia
  GI50: 2.29 µM
  TGI: > 100 µM
SW-620 colon
  GI50: 3.38 µM
SNB-19 CNS
  GI50: 3.44 µM
  TGI: > 100 µM
HCT-116 colon
  GI50: 2 µM
  TGI: 4.52 µM
UACC-257 melanoma
  GI50: 2.5 µM
  TGI: 7.43 µM
